In patent US11666559B2, “Spiro-lactam compounds, process and uses thereof” (UNIVERSIDADE DE COIMBRA, priority 2017, dated 2023):
pIC50: −log10 of the molar value. Read-outs that look alike come from different tables or passages of the source.

Experiments:
TZM-bl cells = experiment: Cellular viability assay (alamarBlue) in TZM-bl cells
Excerpt: In an embodiment, the cellular cytotoxicity of 17 spiro-β-lactams was investigated in TZM-bl cells using the AlamarBlue assay as recommended by the manufacturer (Invitrogen, USA). TZM-bl, previously designated JC53-bl (clone 13) is a HeLa cell line. The parental cell line (JC.53) stably expresses large amounts of CD4, CCR5 and CXCR4. The TZM-bl cell line was generated from JC.53 cells by introducing separate integrated copies of the luciferase and […] genes under control of the HIV-1 promoter. The TZM-bl cell line is highly sensitive to infection with diverse isolates of HIV.
In an embodiment, the cellular viability assay was carried out as follows: the potential in vitro cytotoxicity of all BSS compounds was evaluated in TZM-bl cells. TZM-bl cells (10000 cells/well in 96-well plates) were incubated in absence or presence of serial-two-fold dilutions of the compounds in growth medium (GM), with starting concentration of 100 μg/ml and a final concentration of 0.781 μg/ml. After 48 hours, cell viability was examined with alamarBlue reagent (Invitrogen, USA) according to manufacturer's instructions. Briefly, 10 μl of alamarBlue reagent was added to each well. After 4 hours at 37° C., the fluorescence was measured in Tecan Infinite M200 (excitation wavelength 550 nm and emission wavelength 600 nm).
In an embodiment, at least two independent experiments have been performed for each cytotoxicity analysis.
In an embodiment, for each assay there were medium controls (only growth medium), cell controls (cells without test compound) and cytotoxicity controls (a compound that kill cells—SDS).

[1] = test system: Escherichia coli (Clinical strain); experiment: Anti-bacterial activity, agar diffusion method; format: cell-based; details: at the concentration of 1 mg/ml
Experimental: (§1) In an embodiment, anti-bacterial activity of the compounds now disclosed was determined according to CLSI guidelines. The following bacteria were used: reference strains E. coli ATCC 10536, Staphylococcus aureus ATCC 6538, Bacillus subtilis ATCC 6633 and Enterococcus faecalis ATCC 29212; clinical strains of E. coli and Pseudomonas aeruginosa isolated in our laboratory; and strains of Lactobacillus rhamnosus and Lactobacillus plantarum also isolated in our laboratory. The Minimum Inhibitory Concentration (MIC) was determined by the agar diffusion method, in plates of Mueller-Hinton agar or Rogosa agar (for Lactobacilli). Briefly, 10^8 cfu/ml bacterial suspensions were prepared in sterile water and spread in the culture media. Sterile disks containing different concentrations of P3 were placed on the inoculated surface. Plates were incubated at 37° C. for 24 h or 48 h. Lactobacilli were incubated at microaerophilic conditions. A negative control made of sterile water was used. Disks of amoxicillin and imipenem were used as positive controls.

[2] = test system: Escherichia coli ATCC 10536; experiment: Anti-bacterial activity, agar diffusion method; format: cell-based; details: at the concentration of 1 mg/ml
Experimental: as §1

[3] = test system: Staphylococcus aureus ATCC 6538; experiment: Anti-bacterial activity, agar diffusion method; format: cell-based; details: at the concentration of 1 mg/ml
Experimental: as §1

[4] = test system: Pseudomonas aeruginosa (Clinical strain); experiment: Anti-bacterial activity, agar diffusion method; format: cell-based; details: at the concentration of 1 mg/ml
Experimental: as §1

Lactobacillus rhamnosus = experiment: Anti-bacterial activity, agar diffusion method; format: cell-based; details: at the concentration of 1 mg/ml
Experimental: as §1

[5] = test system: Enterococcus faecalis ATCC 29212; experiment: Anti-bacterial activity, agar diffusion method; format: cell-based; details: at the concentration of 1 mg/ml
Experimental: as §1

Lactobacillus plantarum = experiment: Anti-bacterial activity, agar diffusion method; format: cell-based; details: at the concentration of 1 mg/ml
Experimental: as §1

[6] = test system: Bacillus subtillis ATCC 6633; experiment: Anti-bacterial activity, agar diffusion method; format: cell-based, Bacillus subtilis; details: at the concentration of 1 mg/ml
Experimental: as §1

HIV-2 = test system: HIV-2
Experimental: (§2) In an embodiment, TZM-bl cells (AIDS Research and Reference Reagent Program, National Institutes of Health, USA) were cultured in complete growth medium that consists of Dulbecco's minimal essential medium (DMEM) supplemented with 10% fetal bovine serum (FBS), 100 U/ml of penicillin-streptomycin (Gibco/Invitrogen, USA), 1 mM of sodium pyruvate (Gibco/Invitrogen, USA), 2 mM of L-glutamine (Gibco/Invitrogen, USA) and 1 mM of non-essential amino acids (Gibco/Invitrogen, USA).
(§3) In an embodiment, the primary isolates 93AOHDC249, 93AOHDC250, 01PTHDECJN and 03PTHCC9, used in this study were previously isolated, titrated and characterized for co-receptor usage. HIV reference strain SG3.1 was obtained by transfection of HEK293T cells with pSG3.1 (HIV-1) plasmid using Fugene 6 reagent (Roche, Switzerland) according to manufacturer's instructions.
(§4) In an embodiment, the 50% tissue culture infectious dose (TCID50) of the virus was determined in a single-round viral infectivity assay using a luciferase reporter gene assay in TZM-bl cells and calculated using the statistical method of Reed and Muench^27.
(§5) In an embodiment, the antiviral activity of the compounds was determined in a single-round assay with TZM-bl cells as previously described ^26. Cells were infected with 200 TCID50 of virus in the presence of serial fold dilutions of the BSS compounds in GM, supplemented with DEAE-dextran (19.7 μg/ml). After 48 h of infection, luciferase expression was quantified with the One-Glow luciferase assay substrate reagent (Promega, USA) according to manufacturer's instructions. Briefly, a volume of reagent equal to that of the culture medium in each well was added. For 96-well plates, typically 100 μl of reagent is added to the cells grown in 100 μl of medium. After an incubation of 3 minutes at room temperature to allow complete cell lysis luminescence was measured in Tecan Infinite M200. Background luminescence was measured by using control wells that contained only target cells and GM. Maraviroc (CCR5 antagonist), T1249 (fusion inhibitor) and AMD3100 (CXCR4 antagonist) were used as positive controls of the antiviral activity. At least two independent experiments were performed for each analysis and each assay was set up in triplicate wells.
(§6) In an embodiment, dose-response curves were estimated from the percentage of inhibition of infection (y-axis) against logo of concentration of each compound (x-axis) using the sigmoidal dose-response equation (variable slope) in GraphPad Prism version 5.00 for Windows (GraphPad Software, San Diego Calif. USA, www.graphpad.com). IC50 and IC90 values were determined from this curve. IC50 and IC90 values correspond to the concentration of compound that inhibits viral replication in 50% and 90%, respectively.

HIV-1 = details: for pIC50 / IC90: TZM-bl cells
Experimental: as §2, §3, §4, §5, §6

P. berghei liver stages = experiment: In vitro activity against the liver stage of Plasmodium infection (luciferase assay in Huh7 cells); format: cell-based, Plasmodium berghei; details: P. berghei liver stages in Huh7 cells
Experimental: FIG. 6: Compound activity against P. berghei liver stages. Anti-Plasmodial activity (infection axis, bars) and toxicity to hepatoma cells (cell confluency axis, circles) are shown. Infection loads of Huh7 cells, a human hepatoma cell line, were determined by bioluminescence measurements of cell lysates 48 h after infection with luciferase-expressing P. berghei parasites. Luciferase assay in 96 well-plate; 10 000 Huh7 cells/well+10 000 PbA-LuciGFPcon spz/well.
In an embodiment, the in vitro activity against the liver stage of Plasmodium infection was also carried out: inhibition of liver stage Plasmodium infection by test compounds was determined by measuring the luminescence intensity in Huh-7 cells infected with a firefly luciferase-expressing P. berghei line, as previously described. Briefly, Huh-7 cells, a human hepatoma cell line, were cultured in 1640 RPMI medium supplemented with 10% v/v fetal bovine serum, 1% v/v nonessential amino acids, 1% v/v penicillin/streptomycin, 1% v/v glutamine, and 10 mM 4-(2-hydroxyethyl)-1-piperazineethanesulfonic acid (HEPES), pH 7, and maintained at 37° C. with 5% CO2. For infection assays, Huh-7 cells (1.0×10^4 per well) were seeded in 96-well plates the day before drug treatment and infection. The medium was replaced by medium containing the appropriate concentration of each compound approximately 1 h prior to infection with sporozoites freshly obtained through disruption of salivary glands of infected female Anopheles stephensi mosquitoes. Sporozoite addition was followed by centrifugation at 1700×g for 5 min. Parasite infection load was measured 48 h after infection by a bioluminescence assay (Biotium). The effect of the compounds on the viability of Huh-7 cells was assessed by the AlamarBlue assay (Invitrogen, U.K.) using the manufacturer's protocol.

HIV = experiment: Anti-HIV activity evaluation (HIV type not specified); format: cell-based
Experimental: as §2, §3, §4
In an embodiment, the antiviral activity of the compounds was determined in a single-round assay with TZM-bl cells as previously described ^26. […] After 48 h of infection, luciferase expression was quantified with the One-Glow luciferase assay substrate reagent (Promega, USA) according to manufacturer's instructions. […] After an incubation of 3 minutes at room temperature to allow complete cell lysis luminescence was measured in Tecan Infinite M200. Background luminescence was measured by using control wells that contained only target cells and GM. […]
as §6, with “IC50 and IC90 values correspond to the concentration of compound that inhibits viral replication in 50% and 90%, respectively.” left out

[7] = 03PTHCC19, CCR5 tropic HIV-2 isolate, TZM-bl cells, wa = without antiviral activity
[8] = 93AOHDC249, CCR5 tropic HIV-1 primary isolate
[9] = SG3.1, CXCR4 tropic HIV-1 adapted isolate

CC(=O)C1N=NC(c2ccccc2)C12C(=O)N1[C@@H](C(=O)OC(c3ccccc3)c3ccccc3)C(C)(C)S[C@@H]12 (some centres unmarked) [BSS-974S]
CC50 (TZM-bl cells): 91.9 µM

COC(=O)C1=C(C(=O)OC)[C@@]2(N=N1)C(=O)N1[C@@H](C(=O)O)C(C)(C)S[C@@H]12 [BSS-587, (2,3′R,5R)-4′,5′-bis(methoxycarbonyl)-3,3-dimethyl-7-oxo-4-thia-1-azaspiro[bicyclo[3.2.0]heptane-6,3′-pyrazole]-2-carboxylic acid]
inhibitory activity [1]: no inhibitory activity | inhibitory activity [2]: no inhibitory activity | inhibitory activity [3]: no inhibitory activity | inhibitory activity [4]: no inhibitory activity | inhibitory activity (Lactobacillus rhamnosus): no inhibitory activity | inhibitory activity [5]: no inhibitory activity | inhibitory activity (Lactobacillus plantarum): no inhibitory activity | inhibitory activity [6]: no inhibitory activity | CC50 (TZM-bl cells; Table 2, TZM-bl cells, 48 hours, alamarBlue): 136 µM

CC(=O)C1C(C)C=C(C(=O)OCc2ccccc2)C12C(=O)N1[C@@H](C(=O)OC(c3ccccc3)c3ccccc3)C(C)(C)S[C@@H]12 (some centres unmarked) [BSS-794B]
CC50 (TZM-bl cells): 49 µM

COC(=O)C1C(C(=O)OCc2ccccc2)=CCC12C(=O)N1[C@@H](C(=O)OC(c3ccccc3)c3ccccc3)C(C)(C)S[C@@H]12 (some centres unmarked) [BSS-722A]
anti-HIV activity against HIV-2 (in words) (HIV-2): potent activity | TI (in vitro therapeutic index, CC50/IC50) (HIV-2; 03PTHCC19, CCR5 tropic HIV-2 isolate): 105.29 | pIC50 (HIV-2; [7]): 6.29 | IC90 (HIV-2; [7]): 1.18 µM | MPI (maximum percentage of inhibition) (HIV-2; 03PTHCC19, CCR5 tropic HIV-2 isolate, wa = without antiviral activity): 90% | anti-HIV activity against HIV-1 (in words) (HIV-1): potent activity | MPI (maximum percentage of inhibition) (HIV-1; [8]): 99% | TI (in vitro therapeutic index, CC50/IC50) (HIV-1; [8]): 161.80 | pIC50 (HIV-1; [8]): 6.48 | IC90 (HIV-1; [8]): 0.701 µM | MPI (maximum percentage of inhibition) (HIV-1; [9]): 97% | TI (in vitro therapeutic index, CC50/IC50) (HIV-1; [9]): 82.64 | pIC50 (HIV-1; [9]): 6.19 | IC90 (HIV-1; [9]): 1.09 µM | CC50 (TZM-bl cells): 53.7 µM | CC50 (TZM-bl cells; read-out: CC50 (cytotoxic concentration 50%), Table 1, TZM-bl cells, 48 hours, alamarBlue): 53.7 µM | anti-Plasmodium activity (in words) (P. berghei liver stages): presented activity

COC(=O)C1=C[C@@]2(N=N1)C(=O)N1[C@@H](C(=O)OC(c3ccccc3)c3ccccc3)C(C)(C)S[C@@H]12 [BSS-452]
CC50 (TZM-bl cells): 105 µM | anti-Plasmodium activity (in words) (P. berghei liver stages): did not display anti-Plasmodium activity | anti-HIV activity (in words) (HIV): non-active

CC(C)(C)OC(=O)C1=NNC(c2ccccc2)C12C(=O)N1[C@@H](C(=O)OC(c3ccccc3)c3ccccc3)C(C)(C)S[C@@H]12 (some centres unmarked) [BSS-973C]
CC50 (TZM-bl cells): 79.8 µM

CCOC(=O)C1=NNC2(C1)C(=O)N1C(C(=O)O)C(C)(C)SC12 (centres unmarked) [BSS-597, Spiro[penicillanic-6,5′-(3-ethoxycarbonyl-2-pyrazoline)] acid]
inhibitory activity [1]: no inhibitory activity | inhibitory activity [2]: no inhibitory activity | inhibitory activity [3]: no inhibitory activity | inhibitory activity [4]: no inhibitory activity | inhibitory activity (Lactobacillus rhamnosus): no inhibitory activity | inhibitory activity [5]: no inhibitory activity | inhibitory activity (Lactobacillus plantarum): no inhibitory activity | inhibitory activity [6]: no inhibitory activity | CC50 (TZM-bl cells): 152 µM

CC(=O)C1=NNC2(C1)C(=O)N1C(C(=O)O)C(C)(C)SC12 (centres unmarked) [BSS-591, Spiro[penicillanic-6,5′-(3-acetyl-2-pyrazoline)] acid]
inhibitory activity [1]: no inhibitory activity | inhibitory activity [2]: no inhibitory activity | inhibitory activity [3]: no inhibitory activity | inhibitory activity [4]: no inhibitory activity | inhibitory activity (Lactobacillus rhamnosus): no inhibitory activity | inhibitory activity [5]: no inhibitory activity | inhibitory activity (Lactobacillus plantarum): no inhibitory activity | inhibitory activity [6]: no inhibitory activity | CC50 (TZM-bl cells): 164 µM

CC(=O)C1C(C(=O)OCc2ccccc2)=CCC12C(=O)N1[C@@H](C(=O)OC(c3ccccc3)c3ccccc3)C(C)(C)S[C@@H]12 (some centres unmarked) [BSS-793B]
CC50 (TZM-bl cells): 47.7 µM

CC1(C)S[C@H]2N(C(=O)C23C(C(=O)c2ccccc2)N=NC3c2ccccc2)[C@H]1C(=O)OC(c1ccccc1)c1ccccc1 (some centres unmarked) [BSS-971S]
CC50 (TZM-bl cells): 82 µM

CC(=O)C1=NNC(c2ccccc2)C12C(=O)N1[C@@H](C(=O)OC(c3ccccc3)c3ccccc3)C(C)(C)S[C@@H]12 (some centres unmarked) [BSS-974C]
CC50 (TZM-bl cells): 80.8 µM

COC(=O)C1=C(C(=O)OC)[C@@]2(N=N1)C(=O)N1[C@@H](C(=O)OC(c3ccccc3)c3ccccc3)C(C)(C)S[C@@H]12 [BSS-1026]
CC50 (TZM-bl cells): 82 µM | anti-Plasmodium activity (in words) (P. berghei liver stages): did not display anti-Plasmodium activity | anti-HIV activity (in words) (HIV): non-active
